For assay [1], the target named is T1, recombinant human MAO-B (Homo sapiens, UniProt P27338).
T1 construct: purchased Sigma-Aldrich
T1 sequence (P27338 1-520): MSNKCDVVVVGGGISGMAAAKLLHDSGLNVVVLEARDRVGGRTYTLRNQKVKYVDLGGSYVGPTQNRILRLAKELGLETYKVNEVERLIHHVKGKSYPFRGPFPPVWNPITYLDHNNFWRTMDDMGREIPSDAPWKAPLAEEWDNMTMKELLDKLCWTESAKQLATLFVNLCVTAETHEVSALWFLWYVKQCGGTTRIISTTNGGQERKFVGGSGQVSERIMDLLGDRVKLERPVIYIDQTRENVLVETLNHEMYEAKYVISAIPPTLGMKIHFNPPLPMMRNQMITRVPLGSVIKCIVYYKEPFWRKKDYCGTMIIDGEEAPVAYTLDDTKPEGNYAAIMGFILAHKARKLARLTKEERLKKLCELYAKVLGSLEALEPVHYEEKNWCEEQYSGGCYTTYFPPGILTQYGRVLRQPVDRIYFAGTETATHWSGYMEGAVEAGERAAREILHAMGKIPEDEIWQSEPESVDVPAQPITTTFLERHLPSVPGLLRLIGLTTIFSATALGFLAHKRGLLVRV
In words: biochemical. The format is biochemical. Conditions: for remaining activity at 10 µM: read-out: Residual Activity at 10 µM (%) MAO-B.

Assay [2] deals with T2, AChE from Electrophorus electricus (Electrophorus electricus, UniProt O42275).
T2 construct: purchased Sigma-Aldrich
T2 sequence (O42275 24-633): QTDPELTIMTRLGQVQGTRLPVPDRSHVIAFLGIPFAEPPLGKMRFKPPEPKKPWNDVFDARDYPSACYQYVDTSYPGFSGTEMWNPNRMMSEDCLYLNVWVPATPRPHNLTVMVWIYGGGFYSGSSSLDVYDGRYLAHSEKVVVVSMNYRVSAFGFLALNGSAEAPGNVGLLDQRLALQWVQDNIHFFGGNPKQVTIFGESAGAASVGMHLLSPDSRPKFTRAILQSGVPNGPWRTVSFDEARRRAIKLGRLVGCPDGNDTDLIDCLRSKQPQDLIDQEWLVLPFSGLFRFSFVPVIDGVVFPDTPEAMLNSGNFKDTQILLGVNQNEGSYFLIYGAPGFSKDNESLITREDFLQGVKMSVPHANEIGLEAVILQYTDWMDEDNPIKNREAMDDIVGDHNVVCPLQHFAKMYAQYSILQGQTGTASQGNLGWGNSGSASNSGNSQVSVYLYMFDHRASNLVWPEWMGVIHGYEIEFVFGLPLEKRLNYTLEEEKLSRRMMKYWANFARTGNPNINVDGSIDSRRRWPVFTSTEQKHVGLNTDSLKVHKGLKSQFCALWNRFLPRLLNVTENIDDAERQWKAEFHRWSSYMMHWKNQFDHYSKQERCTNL
In words: AChE inhibition assay (Ellman, ATCI). It counts as biochemical. The following applies: for remaining activity at 10 µM: read-out: Residual Activity at 10 µM (%) AChE; for Residual Activity at 10 µM (%) AChE: inhibitor 10 µM, mean ± SE, triplicate.

Assay [3] addresses T3, BChE from equine serum (Equus caballus, UniProt P81908).
T3 construct: BChE from equine serum; purchased Sigma-Aldrich; host or cells: equine serum
In words: BChE inhibition assay (Ellman, BTCI) and kinetics. Conditions: for remaining activity at 10 µM: read-out: Residual Activity at 10 µM (%) BChE; for Residual Activity at 10 µM (%) BChE: inhibitor 10 µM, mean ± SE, triplicate. It counts as biochemical. For orientation: DTNB colorimetry detects thiols as they appear.

The target of a further assay is T4, recombinant human MAO-A (Homo sapiens, UniProt P21397).
T4 construct: purchased Sigma-Aldrich
T4 sequence (P21397 1-527): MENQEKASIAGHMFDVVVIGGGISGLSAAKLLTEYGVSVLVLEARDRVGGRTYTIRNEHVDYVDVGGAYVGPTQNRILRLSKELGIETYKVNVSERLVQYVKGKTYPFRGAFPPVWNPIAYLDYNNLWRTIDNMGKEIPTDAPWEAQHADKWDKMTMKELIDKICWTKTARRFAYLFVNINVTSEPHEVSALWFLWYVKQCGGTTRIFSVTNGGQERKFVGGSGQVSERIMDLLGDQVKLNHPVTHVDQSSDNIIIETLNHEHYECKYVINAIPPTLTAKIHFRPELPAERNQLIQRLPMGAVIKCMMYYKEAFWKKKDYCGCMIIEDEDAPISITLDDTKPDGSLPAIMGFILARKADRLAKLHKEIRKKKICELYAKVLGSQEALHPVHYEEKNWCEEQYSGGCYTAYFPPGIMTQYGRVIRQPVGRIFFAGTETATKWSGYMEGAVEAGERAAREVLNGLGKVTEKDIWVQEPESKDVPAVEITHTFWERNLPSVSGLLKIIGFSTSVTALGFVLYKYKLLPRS
In words: biochemical. The format is biochemical. The following applies: for remaining activity at 10 µM: read-out: Residual Activity at 10 µM (%) MAO-A.

Assay [4] has as its target T1, recombinant human MAO-B. In words: Reversibility of MAO-B inhibition by dialysis. The format is biochemical.
For a further assay, the system named is AChE. Conditions: cited from earlier work.
A further assay relates to BChE. The following applies: cited from earlier work; for BChE inhibition: 25 μg/mL (sphondin 115.7 μM, pimpinellin 101.5 μM), from Heracleum platytaenium.
The subject of the next assay is MAO-B. Also noted: method as in PMID 28634060. Conditions: cited from earlier work.
The target in assay [5] is T3, BChE from equine serum. In words: Reversibility of BChE inhibition by dilution method. The format is biochemical.
In assay [6] the target is T3, BChE from equine serum. As to the kind of experiment: Reversibility of BChE inhibition by dialysis. The format is biochemical.
[7] abbreviates: inhibitor 10 µM, mean ± SE, triplicate.

Like-named read-outs stand apart in the source and are kept apart here.

T3 sequence (P81908 whole entry): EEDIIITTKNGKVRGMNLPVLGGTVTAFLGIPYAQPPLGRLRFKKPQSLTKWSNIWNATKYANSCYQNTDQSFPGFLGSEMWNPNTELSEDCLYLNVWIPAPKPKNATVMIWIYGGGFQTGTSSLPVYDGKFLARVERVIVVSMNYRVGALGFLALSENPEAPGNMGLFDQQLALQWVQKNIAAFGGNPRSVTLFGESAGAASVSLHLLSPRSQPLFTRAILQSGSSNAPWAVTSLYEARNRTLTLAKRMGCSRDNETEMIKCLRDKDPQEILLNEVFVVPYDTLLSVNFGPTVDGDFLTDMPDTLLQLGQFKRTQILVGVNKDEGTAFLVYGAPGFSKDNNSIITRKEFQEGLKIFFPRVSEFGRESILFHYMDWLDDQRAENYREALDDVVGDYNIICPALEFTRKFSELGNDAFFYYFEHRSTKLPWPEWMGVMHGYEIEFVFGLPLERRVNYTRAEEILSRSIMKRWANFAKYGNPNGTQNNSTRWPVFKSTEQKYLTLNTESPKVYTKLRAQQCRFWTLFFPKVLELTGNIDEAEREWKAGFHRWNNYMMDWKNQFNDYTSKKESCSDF

Regarding `O=C(/C=C/c1ccc(O[C@@H]2O[C@H](CO)[C@@H](O)[C@H](O)[C@H]2O)cc1)c1ccc(O)cc1O` [Isoliquiritin, isoliquiritin], the IC50 (at recombinant human MAO-B [1]; in assay [2]; on BChE from equine serum [3]; at recombinant human MAO-A) was above 40 µM each time. Moreover, the remaining activity at 10 µM on recombinant human MAO-B [1] was found to be 75.4 ± 2.27%; in assay [2] it was 69.9 ± 2.2%; at BChE from equine serum [3], 91.9 ± 7.16%; on recombinant human MAO-A it was 81.8 ± 1.61%.
For the compound `O=C1C[C@@H](c2ccc(O)cc2)Oc2cc(O)ccc21` [LG, Liquiritigenin], at recombinant human MAO-B [1] (Lineweaver-Burk plots), the “mode of MAO-B inhibition” value is listed as “reversible competitive inhibitor”. Further, the remaining activity at 10 µM is 0% on recombinant human MAO-B [1], 95.3 ± 3.59% in [2], 82.5 ± 0.26% on BChE from equine serum [3] and 0.46 ± 1.6% on recombinant human MAO-A. In addition, the figures for the IC50 (in [2]; on BChE from equine serum [3]; at recombinant human MAO-A) were above 40 µM, above 40 µM and 0.27 ± 0.041 µM, respectively. Moreover, the “reversibility of MAO-B inhibition” value at recombinant human MAO-B [4] was “reversibly inhibited”.
Regarding `CC1(C)[C@@H](O)CC[C@]2(C)[C@H]3C(=O)C=C4[C@@H]5C[C@@](C)(C(=O)O)CC[C@]5(C)CC[C@@]4(C)[C@]3(C)CC[C@@H]12` [Glycyrrhetinic acid, glycyrrhetinic acid], the IC50 at recombinant human MAO-B [1] and at recombinant human MAO-A was above 40 µM in each case. Besides, the remaining activity at 10 µM was 84 ± 2.16% on recombinant human MAO-B [1] (setting [7]), 97.3 ± 1.61% in assay [2], 95 ± 4.12% on BChE from equine serum [3] and 96.3 ± 2.64% at recombinant human MAO-A (setting [7]).
Take isoliquiritin apioside: the “Residual Activity at 10 µM (%) MAO-B” value at recombinant human MAO-B [1] (setting [7]) was 80.3 ± 5.57%. Besides, in [2], the “Residual Activity at 10 µM (%) AChE” value turned out to be 93.5 ± 3.07%. Also, the “Residual Activity at 10 µM (%) BChE” value on BChE from equine serum [3] is recorded as 95.6 ± 0.88%. Further, the “Residual Activity at 10 µM (%) MAO-A” value on recombinant human MAO-A (setting [7]) was found to be 86.6 ± 3.27%.
As to `CCC(C)C(=O)c1c(O)c2c(c3c(-c4ccccc4)cc(=O)oc13)OC(C)(CCC=C(C)C)C=C2` (stereo not shown) [mesuagenin B], in the assay on AChE (from Mesua elegans), the IC50 is 0.7 µM.
As to `CC(=O)O[C@@H]1CCC(C)(C)c2ccc3c(c21)C(=O)C(=O)C1=C3OC[C@@H]1C` [(1R,15R)-1-acetoxycryptotanshinone], the IC50 in the assay on BChE is 2.4 µM.
On to `COc1cc2ccc(=O)oc2c2ccoc12` [sphondin], for which, in the assay with BChE, the BChE inhibition is 63.69%.
For the compound `COc1ccc([C@@H]2CC(=O)c3c(O)cc(O[C@@H]4O[C@H](CO[C@@H]5O[C@@H](C)[C@H](O)[C@@H](O)[C@H]5O)[C@@H](O)[C@H](O)[C@H]4O)cc3O2)cc1O` [hesperidin], the IC50 in the assay with AChE was 0.00345 µM.
As to `CC(C)=CCC[C@]1(C)[C@@H](CC=C(C)C)C[C@@]2(CC=C(C)C)C(=O)[C@]1(C(=O)C(C)C)C(=O)C(CC=C(C)C)=C2O` [hyperforin], the IC50 in the assay with BChE is 142 µM.
As to `COc1ccc(-c2cc(=O)c3c(O)cc(O)cc3o2)cc1` [acacetin], the IC50 with MAO-B was 0.17 µM.
On to liquiritin apioside, for which, on recombinant human MAO-B [1] (setting [7]), the “Residual Activity at 10 µM (%) MAO-B” value was 94.8 ± 0.57%. Moreover, the “Residual Activity at 10 µM (%) AChE” value in assay [2] is reported as 63.5 ± 2.56%. The “Residual Activity at 10 µM (%) BChE” value at BChE from equine serum [3] worked out at 97.6 ± 0.93%. Moreover, the “Residual Activity at 10 µM (%) MAO-A” value at recombinant human MAO-A (setting [7]) amounted to 86.9 ± 2.41%.
Take `COc1ccc(CCCc2ccc(O)cc2)c(O)c1` [broussonin A]: the IC50 in the assay with BChE was 7.5 µM.
As to `O=C1C[C@@H](c2ccc(O[C@@H]3O[C@H](CO)[C@@H](O)[C@H](O)[C@H]3O)cc2)Oc2cc(O)ccc21` [Liquiritin, liquiritin], the IC50 (at recombinant human MAO-B [1]; in [2]; against BChE from equine serum [3]; at recombinant human MAO-A) was above 40 µM each time. Also, the remaining activity at 10 µM turned out to be 90.2 ± 0.56% at recombinant human MAO-B [1], 93.5 ± 5.12% in [2], 95.5 ± 4.67% at BChE from equine serum [3] and 93.5% on recombinant human MAO-A.
As to `CC1(C)[C@@H](O[C@H]2O[C@H](C(=O)O)[C@@H](O)[C@H](O)[C@H]2O[C@@H]2O[C@H](C(=O)O)[C@@H](O)[C@H](O)[C@H]2O)CC[C@]2(C)[C@H]3C(=O)C=C4[C@@H]5C[C@@](C)(C(=O)O)CC[C@]5(C)CC[C@@]4(C)[C@]3(C)CC[C@@H]12` [Glycyrrhizin, glycyrrhizin], the IC50 at recombinant human MAO-B [1] and on recombinant human MAO-A was above 40 µM throughout. Also, the remaining activity at 10 µM worked out at 93.1 ± 4.32% on recombinant human MAO-B [1] (setting [7]), 97.7 ± 2.14% in assay [2], 82.3 ± 7.95% at BChE from equine serum [3] and 95.8 ± 3.3% on recombinant human MAO-A (setting [7]).
In the case of `COc1c(CC=C(C)C)c(O)cc2oc(=O)c3c4ccc(O)cc4oc3c12` [GC, glycyrol], the IC50 is 29.5 ± 0.67 µM on recombinant human MAO-B [1], 14.8 ± 0.19 µM in assay [2], 7.22 ± 0.37 µM on BChE from equine serum [3] and above 40 µM on recombinant human MAO-A. For the same compound, the remaining activity at 10 µM came out at 74.2 ± 3.46% at recombinant human MAO-B [1], 46.1 ± 4.4% in assay [2], 44.6 ± 5.36% on BChE from equine serum [3] and 70.5 ± 1.61% on recombinant human MAO-A. For the same compound, the Ki on BChE from equine serum [3] turned out to be 4.47 µM. Further, the “selectivity index (SI) for BChE with respect to AChE” value on BChE from equine serum [3] is 2.0. Besides, the “mode of BChE inhibition” value at BChE from equine serum [3] (Lineweaver-Burk plots) was “reversible, noncompetitive inhibitor”. The “residual BChE activity, preincubated at 50 × IC50 then diluted to 1 × IC50” value on BChE from equine serum [5] (15 min preincubation, after dilution) is recorded as 40.1%. In addition, the “residual BChE activity, control at 1 × IC50 (before dilution)” value on BChE from equine serum [5] (GC at 1 × IC50) was 51.1%. Further, the “residual BChE activity at 50 × IC50” value at BChE from equine serum [5] (GC at 50 × IC50) is recorded as 10.3%. Also, the “Residual BChE activity, undialyzed (AU)” value at BChE from equine serum [6] (2 × IC50 (GC […]; tacrine 0.03 µM), 30 min preincubation) is reported as 34.6%. Besides, the “Residual BChE activity, dialyzed (AD)” value on BChE from equine serum [6] (2 × IC50 (GC […]; tacrine 0.03 µM), 6 h dialysis) is recorded as 58.4%. Further, the “reversibility of BChE inhibition” value at BChE from equine serum [6] (dialysis and dilution methods) is reported as “reversible inhibitor”.
In the case of `COc1cc2c(cc1O)C[C@H]1c3c(cc(O)c(OC)c3-2)CCN1C` [boldine], the half-maximal inhibitory concentration (IC50) with BChE was 321 µM.
Regarding `Cc1cc2c(cc(=O)c1O)[C@@]1(CO)CCCC(C)(C)[C@@H]1CC2` [isograndifoliol], the IC50 with BChE is 0.9 µM.
On to cremaphenanthrene F, for which, in the assay with BChE, the IC50 was 14.6 µM.
With `CC(C)=CCc1c(O)ccc2ccc(=O)oc12` [osthenol], the IC50 with AChE (from Angelica pubescens) was 25.3 µM.
As for tannic acid, in the assay with AChE, the IC50 was 0.087 µM.
With sagachromanol I, in the assay with BChE, the IC50 is 10.8 µM.
Consider `COc1cc2ccc(=O)oc2cc1O` [scopoletin], for which the IC50 in the assay with BChE was 9.11 µM.
Consider hyuganin C, for which the IC50 in the assay on BChE is 38.9 µM.
As to `COc1c2occc2cc2ccc(=O)oc12` [xanthotoxin], the IC50 in the assay on AChE (from Ferula lutea) was 0.76 µM.
As for `COc1c(OC)c2occc2c2oc(=O)ccc12` [pimpinellin], in the assay with BChE, the BChE inhibition was 78.02%.

A word on the IC50: it is the midpoint of a concentration-inhibition curve. The term Ki denotes a dissociation constant, usually derived from enzyme kinetics or from competition with a known ligand. Low values mean a stronger hold on the target, high ones a looser hold on the target.

The values above are taken from article PMC7504216 (Molecules, 2020).
